Key:
D(4) dopamine receptor [1] = target: T1, D(4) dopamine receptor (Homo sapiens, UniProt P21917); experiment: Binding affinity to recombinant human dopamine receptor D4
T1 sequence (P21917 whole entry): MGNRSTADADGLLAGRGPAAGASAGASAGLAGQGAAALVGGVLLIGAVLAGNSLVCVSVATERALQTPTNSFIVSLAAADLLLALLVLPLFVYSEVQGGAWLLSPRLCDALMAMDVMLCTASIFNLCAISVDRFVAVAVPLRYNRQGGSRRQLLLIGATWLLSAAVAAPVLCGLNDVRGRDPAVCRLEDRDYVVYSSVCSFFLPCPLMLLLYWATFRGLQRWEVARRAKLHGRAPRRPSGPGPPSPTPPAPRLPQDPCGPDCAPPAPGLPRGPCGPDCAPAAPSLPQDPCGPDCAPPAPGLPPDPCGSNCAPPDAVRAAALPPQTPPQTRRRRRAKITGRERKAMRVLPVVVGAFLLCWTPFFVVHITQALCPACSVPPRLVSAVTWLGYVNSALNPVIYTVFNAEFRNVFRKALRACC

D(2) dopamine receptor = D(2) dopamine receptor (Homo sapiens, UniProt P14416); experiment: Binding affinity towards cloned human Dopamine receptor D2 was determined
D(3) dopamine receptor = D(3) dopamine receptor (Homo sapiens, UniProt P35462); experiment: Binding affinity towards cloned human Dopamine receptor D3 was determined
[2] = target: Serotonin 2 (5-HT2) receptor (Homo sapiens, UniProt P41595+P28223+P28335); experiment: Binding affinity towards cloned human 5-hydroxytryptamine 2 receptor was determined; assay type: protein assay
D(4) dopamine receptor [3] = target: T1, D(4) dopamine receptor; experiment: Antagonistic activity against human Dopamine receptor D4.2 using [35S]GTP-gamma-S binding assay
[4] = target: T2, Adrenergic receptor alpha-2 (Homo sapiens, UniProt P08913+P18825+P18089); experiment: Binding affinity towards cloned human Alpha-2 adrenergic receptor was determined; assay type: protein assay
T2 sequence (P08913 whole entry): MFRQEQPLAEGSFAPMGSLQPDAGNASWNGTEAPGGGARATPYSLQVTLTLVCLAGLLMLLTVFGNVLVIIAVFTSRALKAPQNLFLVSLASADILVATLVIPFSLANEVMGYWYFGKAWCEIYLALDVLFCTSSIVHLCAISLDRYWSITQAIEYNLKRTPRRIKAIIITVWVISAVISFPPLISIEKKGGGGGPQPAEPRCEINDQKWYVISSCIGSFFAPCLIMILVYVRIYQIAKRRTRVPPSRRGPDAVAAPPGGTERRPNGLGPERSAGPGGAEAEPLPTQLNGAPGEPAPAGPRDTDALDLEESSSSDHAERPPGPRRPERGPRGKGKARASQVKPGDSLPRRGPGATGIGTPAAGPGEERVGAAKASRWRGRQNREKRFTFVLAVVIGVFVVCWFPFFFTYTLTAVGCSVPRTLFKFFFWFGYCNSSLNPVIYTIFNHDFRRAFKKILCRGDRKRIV
T2 sequence (P18825 whole entry): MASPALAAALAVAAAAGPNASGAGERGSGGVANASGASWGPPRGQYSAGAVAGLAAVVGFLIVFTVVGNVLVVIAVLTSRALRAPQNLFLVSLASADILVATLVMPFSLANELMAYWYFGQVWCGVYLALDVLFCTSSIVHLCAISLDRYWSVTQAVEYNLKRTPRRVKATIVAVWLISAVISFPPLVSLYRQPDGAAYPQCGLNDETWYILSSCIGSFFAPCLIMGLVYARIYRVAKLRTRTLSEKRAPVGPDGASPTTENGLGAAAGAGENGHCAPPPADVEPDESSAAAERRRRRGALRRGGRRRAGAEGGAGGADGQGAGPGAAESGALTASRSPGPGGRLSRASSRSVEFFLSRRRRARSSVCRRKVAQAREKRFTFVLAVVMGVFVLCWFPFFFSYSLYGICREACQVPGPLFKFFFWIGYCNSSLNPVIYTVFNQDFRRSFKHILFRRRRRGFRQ
T2 sequence (P18089 whole entry): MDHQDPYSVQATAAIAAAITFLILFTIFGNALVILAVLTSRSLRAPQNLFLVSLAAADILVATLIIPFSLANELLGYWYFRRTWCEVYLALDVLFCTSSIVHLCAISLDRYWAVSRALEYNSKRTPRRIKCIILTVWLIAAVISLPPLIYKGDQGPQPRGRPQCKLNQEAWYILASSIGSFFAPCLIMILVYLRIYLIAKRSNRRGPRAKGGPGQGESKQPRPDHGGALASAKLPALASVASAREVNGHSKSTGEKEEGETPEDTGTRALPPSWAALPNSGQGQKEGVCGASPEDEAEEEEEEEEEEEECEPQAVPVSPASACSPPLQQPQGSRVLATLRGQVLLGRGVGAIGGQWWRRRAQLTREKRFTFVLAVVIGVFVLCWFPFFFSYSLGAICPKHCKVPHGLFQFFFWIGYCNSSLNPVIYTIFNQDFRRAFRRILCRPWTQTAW

[5] = target: T3, Adrenergic receptor alpha-1 (Homo sapiens, UniProt P35348+P25100+P35368); experiment: Binding affinity towards cloned human Alpha-1 adrenergic receptor was determined; assay type: protein assay
T3 sequence (P35348 whole entry): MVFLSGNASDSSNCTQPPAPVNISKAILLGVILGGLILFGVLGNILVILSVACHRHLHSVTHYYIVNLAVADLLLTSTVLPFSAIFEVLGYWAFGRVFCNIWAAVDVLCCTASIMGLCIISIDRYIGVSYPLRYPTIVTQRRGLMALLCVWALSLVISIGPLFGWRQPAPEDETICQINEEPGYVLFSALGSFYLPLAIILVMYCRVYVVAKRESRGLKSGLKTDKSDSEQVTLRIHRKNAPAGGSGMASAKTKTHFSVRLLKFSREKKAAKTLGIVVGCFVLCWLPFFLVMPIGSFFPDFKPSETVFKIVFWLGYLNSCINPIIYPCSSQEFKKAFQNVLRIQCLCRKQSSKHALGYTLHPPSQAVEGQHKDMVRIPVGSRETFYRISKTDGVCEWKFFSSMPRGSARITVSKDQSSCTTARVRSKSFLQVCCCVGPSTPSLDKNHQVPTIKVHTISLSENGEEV
T3 sequence (P25100 whole entry): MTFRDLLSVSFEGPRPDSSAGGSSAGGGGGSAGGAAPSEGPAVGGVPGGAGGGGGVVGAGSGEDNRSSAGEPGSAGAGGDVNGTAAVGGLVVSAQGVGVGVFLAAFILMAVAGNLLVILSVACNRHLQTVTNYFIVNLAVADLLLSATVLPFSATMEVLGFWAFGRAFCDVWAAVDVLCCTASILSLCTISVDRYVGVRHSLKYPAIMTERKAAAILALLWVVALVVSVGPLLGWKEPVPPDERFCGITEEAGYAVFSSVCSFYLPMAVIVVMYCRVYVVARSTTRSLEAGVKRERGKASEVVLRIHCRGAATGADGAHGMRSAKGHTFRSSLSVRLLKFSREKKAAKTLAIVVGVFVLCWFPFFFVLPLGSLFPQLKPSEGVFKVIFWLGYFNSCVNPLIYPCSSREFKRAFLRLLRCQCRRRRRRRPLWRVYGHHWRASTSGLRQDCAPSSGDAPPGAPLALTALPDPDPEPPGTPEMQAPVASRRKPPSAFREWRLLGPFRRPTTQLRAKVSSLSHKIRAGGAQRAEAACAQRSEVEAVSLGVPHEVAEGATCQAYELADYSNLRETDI
T3 sequence (P35368 whole entry): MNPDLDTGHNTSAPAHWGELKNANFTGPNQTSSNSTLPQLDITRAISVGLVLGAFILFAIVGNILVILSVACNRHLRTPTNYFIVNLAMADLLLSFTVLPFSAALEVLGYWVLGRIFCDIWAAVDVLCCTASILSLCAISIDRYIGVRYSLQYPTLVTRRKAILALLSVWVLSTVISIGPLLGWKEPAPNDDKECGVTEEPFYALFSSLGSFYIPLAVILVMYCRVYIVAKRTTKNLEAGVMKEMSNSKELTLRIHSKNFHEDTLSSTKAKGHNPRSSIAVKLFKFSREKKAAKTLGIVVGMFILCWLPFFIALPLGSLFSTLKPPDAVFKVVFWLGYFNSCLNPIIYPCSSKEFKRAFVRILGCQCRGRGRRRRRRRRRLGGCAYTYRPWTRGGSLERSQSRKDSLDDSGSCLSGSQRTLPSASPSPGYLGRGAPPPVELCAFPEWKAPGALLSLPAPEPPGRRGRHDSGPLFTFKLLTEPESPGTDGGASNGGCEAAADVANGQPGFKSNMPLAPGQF

D(1B) dopamine receptor = D(1B) dopamine receptor (Homo sapiens, UniProt P21918); experiment: Binding affinity towards cloned human Dopamine receptor D5 was determined
[6] = target: T4, 5-hydroxytryptamine receptor 1A (Homo sapiens, UniProt P08908); experiment: Binding affinity towards cloned human 5-hydroxytryptamine 1A receptor was determined
T4 sequence (P08908 whole entry): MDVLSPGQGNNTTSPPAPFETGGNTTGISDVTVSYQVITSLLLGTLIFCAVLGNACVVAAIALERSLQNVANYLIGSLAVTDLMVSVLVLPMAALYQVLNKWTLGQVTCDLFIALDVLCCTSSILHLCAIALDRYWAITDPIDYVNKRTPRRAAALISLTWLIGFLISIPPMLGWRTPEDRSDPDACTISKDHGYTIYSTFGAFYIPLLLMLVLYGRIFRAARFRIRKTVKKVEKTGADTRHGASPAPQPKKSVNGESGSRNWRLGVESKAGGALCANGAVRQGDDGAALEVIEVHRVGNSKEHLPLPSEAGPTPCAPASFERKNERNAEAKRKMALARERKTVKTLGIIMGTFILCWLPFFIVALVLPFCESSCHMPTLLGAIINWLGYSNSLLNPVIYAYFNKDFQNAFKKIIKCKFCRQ

[7] = Half life in human microsomes; assay type: ADME, Microsome
D(1A) dopamine receptor = D(1A) dopamine receptor (Homo sapiens, UniProt P21728); experiment: Binding affinity towards Dopamine receptor D1 was determined
[8] = mLogP was determined; assay type: physicochemical; details: octanol/water; read-out: mLog P
[9] = target: T5, D(4) dopamine receptor (Homo sapiens) (UniProt P21917); experiment: Association constant towards cloned human dopamine D4 receptor was determined
T5 sequence (whole entry): T1 sequence (P21917 whole entry)

Chain of D(2) dopamine receptor (P14416 whole entry): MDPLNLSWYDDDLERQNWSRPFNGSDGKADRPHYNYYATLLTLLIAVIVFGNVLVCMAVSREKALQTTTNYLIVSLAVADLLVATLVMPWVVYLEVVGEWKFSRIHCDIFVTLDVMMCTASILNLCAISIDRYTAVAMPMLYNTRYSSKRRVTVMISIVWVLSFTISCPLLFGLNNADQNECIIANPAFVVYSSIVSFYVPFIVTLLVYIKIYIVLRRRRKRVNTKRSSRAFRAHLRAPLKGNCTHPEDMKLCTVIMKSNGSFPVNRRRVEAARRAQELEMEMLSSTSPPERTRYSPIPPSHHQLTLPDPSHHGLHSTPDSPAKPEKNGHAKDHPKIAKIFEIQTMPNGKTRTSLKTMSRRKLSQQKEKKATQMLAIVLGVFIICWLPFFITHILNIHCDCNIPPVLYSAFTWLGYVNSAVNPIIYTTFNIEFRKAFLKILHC
Chain of D(1B) dopamine receptor (P21918 whole entry): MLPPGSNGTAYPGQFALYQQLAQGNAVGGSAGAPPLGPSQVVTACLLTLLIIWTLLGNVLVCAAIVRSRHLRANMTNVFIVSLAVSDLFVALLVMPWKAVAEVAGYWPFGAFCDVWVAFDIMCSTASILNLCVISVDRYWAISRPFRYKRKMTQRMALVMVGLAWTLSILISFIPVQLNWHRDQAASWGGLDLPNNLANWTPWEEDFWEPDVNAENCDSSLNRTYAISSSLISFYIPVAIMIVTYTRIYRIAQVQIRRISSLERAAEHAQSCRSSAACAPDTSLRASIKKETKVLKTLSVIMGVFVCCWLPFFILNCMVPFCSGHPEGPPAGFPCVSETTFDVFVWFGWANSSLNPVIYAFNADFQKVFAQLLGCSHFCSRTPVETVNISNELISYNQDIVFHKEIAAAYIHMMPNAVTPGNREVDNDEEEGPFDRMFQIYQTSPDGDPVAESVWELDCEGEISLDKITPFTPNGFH
Chain of D(3) dopamine receptor (P35462 whole entry): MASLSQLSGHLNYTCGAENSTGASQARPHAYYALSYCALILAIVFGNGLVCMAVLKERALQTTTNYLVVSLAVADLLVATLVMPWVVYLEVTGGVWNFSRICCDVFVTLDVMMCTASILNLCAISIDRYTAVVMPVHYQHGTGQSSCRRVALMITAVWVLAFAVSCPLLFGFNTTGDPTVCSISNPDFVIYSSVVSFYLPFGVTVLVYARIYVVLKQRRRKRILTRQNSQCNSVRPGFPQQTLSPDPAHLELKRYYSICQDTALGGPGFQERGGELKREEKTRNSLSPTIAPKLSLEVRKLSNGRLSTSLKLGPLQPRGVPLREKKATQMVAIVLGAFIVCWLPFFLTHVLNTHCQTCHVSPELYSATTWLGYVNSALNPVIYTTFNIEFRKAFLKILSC
Chain of D(1A) dopamine receptor (P21728 whole entry): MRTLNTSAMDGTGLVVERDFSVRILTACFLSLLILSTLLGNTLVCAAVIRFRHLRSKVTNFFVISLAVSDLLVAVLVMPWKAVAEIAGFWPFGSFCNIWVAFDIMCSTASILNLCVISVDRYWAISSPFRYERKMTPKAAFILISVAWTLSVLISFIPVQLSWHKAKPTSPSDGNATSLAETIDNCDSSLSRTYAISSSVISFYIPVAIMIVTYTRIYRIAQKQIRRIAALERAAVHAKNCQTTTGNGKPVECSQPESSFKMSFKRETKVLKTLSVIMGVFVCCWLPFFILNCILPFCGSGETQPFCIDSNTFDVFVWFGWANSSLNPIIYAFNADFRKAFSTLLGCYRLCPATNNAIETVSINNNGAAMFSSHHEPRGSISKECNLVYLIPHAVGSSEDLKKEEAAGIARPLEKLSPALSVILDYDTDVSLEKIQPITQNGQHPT

Row | Structure (SMILES) | Ki (D(4) dopamine receptor [1]) [nM] | Ki (D(2) dopamine receptor) [nM] | other results
1 | Cc1sc(C)c2c1CCCc1nncn1-2 | 4320 | > 10000 | 
2 | Cc1sc(C)c2c1CN(C)Cc1c[nH]nc1-2 | > 10000 |  | 
3 | Clc1sc(Cl)c2c1CCCc1cnn(Cc3ccccc3)c1-2 | > 10000 | > 10000 | 
4 | c1ccc2c(c1)CCCc1c[nH]nc1-2 | > 10000 | > 10000 | 
5 | Cc1sc(C)c2c1CC(C)(C)Cc1c[nH]nc1-2 | 1300 | > 10000 | 
6 | Cc1ccc(C)c2c1CCCc1c[nH]nc1-2 | 425 | > 10000 | 
7 | Cn1ncc2c1-c1ccccc1CCC2 | > 10000 | > 10000 | 
8 | CC(C)n1ncc2c1-c1c(Cl)sc(Cl)c1CCC2 | 1560 | > 10000 | 
9 | Cc1sc(C)c2c1CCCc1ncn(C)c1-2 | 1290 | > 10000 | 
10 | Cn1cc2c(n1)-c1ccccc1CCC2 | 507 | > 10000 | 
11 | Cc1sc(C)c2c1CCCc1cn(C)nc1-2 | 228 | 641 | 
12 | Cc1oc(C)c2c1CCCc1c[nH]nc1-2 | 275 |  | 
13 | Cc1sc(C)c2c1CCCc1c-2n[nH]c1CN(C)C | 2560 |  | 
14 | Cc1sc(C)c2c1CCc1cn(C)nc1-2 | 2870 |  | 
15 | CCCn1ncc2c1-c1c(Cl)sc(Cl)c1CCC2 | 3550 | > 10000 | 
16 | Cc1sc(C)c2c1CCCc1nnc(C)n1-2 | 462 | > 10000 | 
17 | Cc1sc(C)c2c1CCCc1cnn(-c3ccccc3)c1-2 | 1580 | > 10000 | 
18 | Cc1sc(C)c2c1CCCc1nccn1-2 | 301 | > 10000 | 

The next compounds have a lower Ki (D(4) dopamine receptor [1]) than those just listed; values first:

Row | Ki (D(4) dopamine receptor [1]) [nM] | Ki (D(2) dopamine receptor) [nM] | Structure (SMILES) | other results
19 | 12 | 2070 | Cc1sc(C)c2c1CCCc1c[nH]nc1-2 | Ki (D(3) dopamine receptor): > 10000 nM; Ki [2]: 2087 nM; EC50 (D(4) dopamine receptor [3]): 9 nM; Ki [4]: > 7800 nM; Ki [5]: > 10000 nM; Ki (D(1B) dopamine receptor): > 10000 nM; Ki [6]: > 1000 nM; half-life [7]: 6 min; Ki (D(1A) dopamine receptor): > 10000 nM; logP [8]: 2.48
20 | 11 | 28 | Cc1oc(C)c2c1CCCc1cnn(C)c1-2 | 
21 | 2 | 176 | Cc1sc(C)c2c1CCCc1cnn(C)c1-2 | 
22 | 22 | 402 | CCn1ncc2c1-c1c(C)sc(C)c1CCC2 | 
23 | 26 | 462 | Cc1sc(C)c2c1CCc1cnn(C)c1-2 | 
24 | 170 |  | Cc1sc(C)c2c1CCc1c[nH]nc1-2 | 
25 | 3 | 111 | Cc1sc(C)c2c1SCc1cnn(C)c1-2 | pKa [9]: 3.06; half-life [7]: < 1 min
26 | 169 | 534 | Clc1sc(Cl)c2c1CCCc1c[nH]nc1-2 | 
27 | 138 | 555 | Cc1sc(C)c2c1CCCc1cnn(C(C)C)c1-2 | 
28 | 97 | 885 | CCCn1ncc2c1-c1c(C)sc(C)c1CCC2 | 
29 | 14 | 416 | Cn1ncc2c1-c1c(Cl)sc(Cl)c1CCC2 | 
30 | 168 | 489 | CCn1ncc2c1-c1c(Cl)sc(Cl)c1CCC2 | 

Reference: ChEMBL document CHEMBL1136188, “1H-Pyrazolo-[3,4-c]cyclophepta[1,2-c]thiophenes: a unique structural class of dopamine D4 selective ligands” (Bioorg Med Chem Lett, 2003)
